No end group written: not given here.
Tested on: tyrosinase de champignon
Experiment: Tyrosinase inhibition (kinetics of dopaquinone formation at 480 nm, substrates L-tyrosine + L-dopa)
Assay type: biochemical

## KCTCCA (cysteine pairing not given here) [hexapeptide, commercialement disponible chez Sigma, France]
Peptide 5.10^-3 M, series T0 (substrates added at time T0)
  pourcentage d'inhibition de la tyrosinase: 98%
Peptide 5.10^-4 M, series T 15 min (substrates added 15 min after mixing peptide and tyrosinase)
  pourcentage d'inhibition de la tyrosinase: 98%
Peptide 5.10^-6 M, result in words
  effet d'inhibition de la tyrosinase: déjà très significative
